What all share (assay): growth of human tumour cells (NCI), 48 h
Test [1] concerns NCI-H23 lung.
Test [2] concerns M14 melanoma.
Test [3] deals with OVCAR-3 ovarian.
Test [4] concerns NCI/ADR-RES ovarian.
In test [5] the test system is HCC-2998 colon.
Test [6] has as its system CAKI-1 renal.
Test [7] relates to SR leukemia.
Test [8] concerns A498 renal.
Test [9] has as its system HCT-15 colon.
Test [10] deals with MOLT-4 leukemia.

We go through 15 compounds from PubChem BioAssay (NCI).

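How tested: cells in 96-well plates exposed to compound for 48 hours at five concentrations. TGI: total growth inhibition.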

As for `COC(=O)/C=C\C(C#N)(C#N)N=Cc1sccc1C`, the TGI in test [1] was found to be 25.3 µM; in [2], 5.48 µM; in test [3], 16 µM; in [4], 32.7 µM; in test [5], 28.6 µM; in test [6], 3.51 µM. The TGI was above 100 µM in test [7], 27.9 µM in test [8] and 4.57 µM in test [9].

Take `NC(=O)c1c(NC=O)ncn1C1OCC(O)C(O)C1O` (stereo not given): the TGI in test [1], in test [10], in test [3], in test [4], in test [6] and in [7] was above 100 µM each time. The compound further yielded a TGI in test [9] above 100 µM.

Consider `CN(C)c1cccc2c1C(=O)C=CC21CCc2ccc(N(C)C)c3c(N(C)C)ccc1c23` (stereo not given), for which the TGI in test [1] is 37.4 µM; in test [10], 47 µM; in [2], 29.1 µM; in [3], 24.8 µM; in test [4], above 100 µM; in test [6], 40 µM. Further, the TGI in [7] worked out at 56.5 µM; in test [8], 15.3 µM.

With `O=C(Nc1nnc(-c2c(Cl)c(Cl)c(Cl)c(Cl)c2-c2nc3cc(C(=O)c4ccccc4)ccc3[nH]2)o1)c1ccc(Cl)cc1`, the TGI in test [1] was above 100 µM; in test [10], above 100 µM; in [2], above 100 µM; in test [3], 54.1 µM; in [4] it was above 100 µM; in [6], above 100 µM. The results for the TGI in test [7], in [8] and in test [9] were above 100 µM, 43.4 µM and above 100 µM, respectively.

In the case of `COC(=O)[C@@H]1CC(C(CN)c2cn(C(=O)OC(C)(C)C)c3ccccc23)C(=O)N1C(=O)OC(C)(C)C` (stereo not given in full), the TGI in test [1] is above 100 µM; in test [10] it was 37.6 µM; in [2], above 100 µM; in [3], 59.8 µM; in test [4], 55.8 µM; in [6], 76.3 µM. Further, the values for the TGI in test [7], in [8] and in test [9] were 43.3 µM, 37.3 µM and above 100 µM, respectively.

As to `Cc1cccc(C)c1Nc1nc(C)c(C(=O)CC(=O)C(=O)Nc2c(C(C)C)cccc2C(C)C)s1`, the TGI in test [1], in test [10], in [2], in [3], in test [4] and in [5] was above 100 µM in each case. Further, the TGI in [6], in [7] and in test [9] was above 100 µM throughout.

Regarding `CCOC(=O)C1([Se]c2ccccc2)CCCC1=O` (stereo not given), the TGI in [1] was 33.4 µM; in [10], 57.1 µM; in test [2], 47.2 µM; in test [3], 98 µM; in test [5] it was above 100 µM; in [6], above 100 µM. The TGI in test [7] was 47.5 µM; in test [8], above 100 µM; in test [9], 25.9 µM.

Regarding `CCn1c(=O)c2nc(SC)sc2n(-c2ccccc2)c1=O`, the TGI in test [1], in test [10], in test [2], in test [3], in [4] and in test [5] was above 100 µM throughout. Also, the TGI in [7] and in test [9] was above 100 µM throughout.

Take `COc1ccc2c(c1)c(=O)c1c(NCCN(C)C)ccc3nnn2c31`: the TGI was 13.1 µM in test [1]; 2.99 µM in [10]; 16.2 µM in test [2]; 19.6 µM in test [3]; 17.8 µM in test [5]; 13.6 µM in test [6]. The TGI in test [7] turned out to be 2.9 µM; in test [8] it was 21.7 µM; in test [9], 16 µM.

On to `CCn1c2ccccc2c2ccc(C3C(C(=O)OC)=C(C)NC(C)=C3C(=O)OC)cc21`, for which the TGI in test [1], in test [10], in test [3], in test [4], in [5] and in [6] was above 100 µM throughout. For the same compound, the TGI in test [7] is above 100 µM; in test [8] it was 46 µM; in [9], above 100 µM.

Take `Cc1ccc(O)c(C2=CC(c3cccc(Br)c3)SC(N)=N2)c1` (stereo not given): the TGI in [1] is 76.3 µM; in test [10], 63.4 µM; in test [2], 62.9 µM; in test [3] it was above 100 µM; in test [4], 71.9 µM; in test [6], above 100 µM. The TGI worked out at 49.7 µM in test [7] and 32.8 µM in test [9].

On to `NC1Cc2ccccc2OC1=O` (stereo not given), for which the TGI in test [1], in test [10], in [2], in test [3], in test [4] and in test [5] was above 100 µM each time. Further, the TGI in test [6], in [7] and in test [9] was above 100 µM each time.

`C#CC1(O)CCC2[C@@H]3CCc4cc(Oc5nc(F)nc(-c6c7ccccc7cn6C)n5)ccc4C3CC[C@@]21C` (stereo not given in full): the TGI in [1], in test [10], in [2], in test [3], in test [5] and in [6] was above 100 µM throughout. For the same compound, the TGI in [7] was above 72.6 µM; in test [8] it was above 100 µM; in test [9], above 100 µM.

In the case of `COc1cccc2cc(C(C)=O)c(=O)oc12`, the TGI in test [1], in test [10], in [2], in test [3], in test [4] and in [5] was above 100 µM in each case. Besides, the TGI in test [6], in test [7] and in test [8] was above 100 µM in each case.

Consider `COc1ccc2nc3n(c2c1)C(=O)c1ccccc1-3`, for which the TGI in test [1], in test [10], in [2], in [3], in [4] and in test [5] was above 100 µM each time. The TGI in test [6], in [7] and in [9] was above 100 µM throughout.
